# Assay: Water sorption test (DVS, hygroscopicity)
# Assay type: physicochemical
# Details: humidity range of 10-90% r.h.
# Description: By low hygroscopicity is meant, within the scope of the present invention, that in sorption experiments on the compound of formula (I) a water uptake of less than 1% is observed in the humidity range of 10-90% investigated.
# A DVS-1 made by Surface Measurement Systems (=SMS) is used to test the hygroscopic characteristics: the following humidity profiles are used: 10-90% r.h. in 10% steps, recording both a sorption and a desorption profile, typical weights: 10-20 mg
smiles,measurement,value
"COc1cc2ncnc(Nc3cccc(Cl)c3F)c2cc1O[C@H]1CC[C@@]2(CC1)NCCNC2=O.O=C(O)/C=C\C(=O)O.O=C(O)/C=C\C(=O)O [(I), (trans)-9-[4-(3-chloro-2-fluoro-phenylamino)-7-methoxy-quinazolin-6-yloxy]-1,4-diaza-spiro[5.5]undecan-5-one dimaleic acid compound]",water uptake in sorption experiments,less than 1%
